Assay results from patent publication US20150148304A1, “Novel Peptides and Analogs for Use in the Treatment of Macrophage Activation Syndrome” (Soligenix, Inc., priority 2013, published 2015).
No end group written: not given here.

How the values were obtained:
[1] = non-GLP pilot toxicology study, single IV administration, mouse; settings: in vivo, IV injection over 30 to 60 seconds, actual dose, read-out: maximum tolerated dose (MTD) of a single administration
Procedure: (§1) Two pilot and 2 definitive repeat-dose toxicity studies were conducted with RIVPA (SEQ ID NO. 5) in mice and cynomolgus monkeys using the intravenous (IV; slow bolus) route of administration.
(§2) These resolved within a few minutes without detectable residual effects.

[2] = non-GLP pilot toxicology study in nonhuman primates; format: in vivo, cynomolgus monkeys; settings: 90, 180 and 220 mg/kg; NHP; resolved within a few minutes
Procedure: as §1, §2

[3] = GLP 14-day repeat-dose IV toxicity study in cynomolgus monkeys; format: in vivo
Procedure: as §1
RIVPA (SEQ ID NO. 5) at 20, 80, 160 mg/kg/day was given IV to cynomolgus monkeys for 14 days. […] In all cases, these clinical signs resolved within a few minutes. […] A dose level of 80 mg/kg/day was considered to be the No-Observed-Adverse-Effect-Level (NOAEL) for this study.
Overall, the NOAEL is considered to be 80 mg/kg/day for cynomolgus monkeys since transient clinical signs were limited to a single study and occurred in only 2 instances of the 98 administrations of the drug at this dose level.
In the latter study, no effect on T-cell, B-cell or NK-cell counts was observed after 14 days of intravenous RIVPA (SEQ ID NO. 5) dosing in the NHP. […] Collectively, there is no indication of a potential for RIVPA (SEQ ID NO. 5) to cause immunotoxicity or non-specific immune activation. No hyperactivation or suppression of adaptive immune responses, or other impact on the phenotypes of cells associated with adaptive immunity, has been detected following RIVPA (SEQ ID NO. 5) administration.

[4] = cardiovascular (CV)/pulmonary safety pharmacology study; format: in vivo, cynomolgus monkey
Source text: In 1 animal, the high dose caused a marked reduction in respiratory rate followed by bradycardia, hypotension and death.
In summary, the major toxicological finding was an acute-onset respiratory depression, accompanied by labored breathing, recumbency and transient decreased activity.

mouse normal blood cells = assay: proliferation of normal blood cells in vitro (mouse); format: cell-based
[5] = system: primary human leukemia cells; assay: proliferation of primary leukemia cells in vitro; format: cell-based
[6] = system: macrophage activation syndrome model; assay: CpG (TLR-9 agonist) induced model of macrophage activation syndrome; format: in vivo, C57BL/6 mice
Procedure: Macrophage activation syndrome was simulated in 8-10 week old C57BL/6 mice by repeated administration of the TLR-9 agonist, CpG. CpG (35 μg in 200 μL) or Saline was administered intraperitoneally (IP) on days 0, 2, 4, 7 and 9. SGX94 (200 mg/kg IP) or Saline was administered on days 1, 4 and 7. […] In a repeat study, the same model was used to test administration of saline (Days 1, 4 and 7; control); RIVPA (SEQ ID NO. 5) at 200 mg/kg administered on Days 1, 4 and 7, 400 mg/kg administered on Day 1, 4 and 7 and 400 mg/kg administered on Days 1; 3, 5 and 7. In this experiment CpG (35 μg) was administered on days 0, 2, 4, 7 and 10 and no saline-stimulated controls were used.

[7] = acute toxicity (respiratory depression) dose levels, mouse; format: in vivo
Procedure: (§3) The observed respiratory depression occurred at different dose levels in different species, and was not predicted by allometric scaling. In particular, the mouse appeared to be the most sensitive species with acute toxicity occurring rarely at 60 mg/kg (HED: ˜5 mg/kg) and commonly at 90 mg/kg (HED: ˜7 mg/kg). In contrast in NHP (cynomologus monkey), acute toxicity occurred occasionally at 160 mg/kg (HED: ˜50 mg/kg) and consistently at 240 mg/kg (HED: ˜78 mg/kg).

[8] = acute toxicity (respiratory depression) dose levels, NHP; format: in vivo, cynomologus monkey
Procedure: as §3

[9] = single IV doses of 20 or 80 mg/kg
[10] = Day 8, 200 mg/kg IP days 1, 4 and 7, relative to CpG stimulated, saline treated group
[11] = Day 10, serum, 200 mg/kg IP, first study
[12] = repeat study, 200 mg/kg Days 1, 4, 7, 400 mg/kg Days 1, 4, 7, 400 mg/kg Days 1, 3, 5, 7

**Q.** Which MTD [1] does the source give for “RIVPA-NH2 [RIVPA, L-arginyl-L-isoleucyl-L-valyl-L-prolyl-L-alanine-amide]” here?
**A.** Its MTD is 88 mg/kg.

**Q.** What about the “clinical signs during and shortly after dosing” value [2] of the same substance?
**A.** The value was “mild clinical signs”.

**Q.** What about the “clinical signs at 160 mg/kg” value ([3]; 160 mg/kg/day IV for 14 days, cynomolgus monkeys, during and shortly after dosing) of the same substance?
**A.** Its value is “Transient decreased activity and partially closed eyes”.

**Q.** And the “toxicity at 20 and 80 mg/kg/day” value ([3]; 20 and 80 mg/kg/day IV for 14 days, cynomolgus monkeys)?
**A.** The value was “did not result in any evidence of toxicity”.

**Q.** And the “immune-related organ weights, histopathology, hematology and clinical chemistry” value ([3]; NHP 14-day toxicity study)?
**A.** The value was “no changes were observed”.

**Q.** What about the “T-cell, B-cell or NK-cell counts” value ([3]; after 14 days of intravenous dosing in the NHP) of the same substance?
**A.** The value was “no effect”.

**Q.** And the NOAEL at 14 days ([3]; cynomolgus monkey, in vivo, IV for 14 days, cynomolgus monkeys, read-out: No-Observed-Adverse-Effect-Level (NOAEL) for this study)?
**A.** The NOAEL at 14 days was 80 mg/kg/day.

**Q.** What about the “overall NOAEL for cynomolgus monkeys” value ([3]; overall across studies, IV) of the same substance?
**A.** The value was 80 mg/kg/day.

**Q.** What about the “clinical signs at 220 mg/kg” value ([4]; 220 mg/kg, death in 1 animal) of the same substance?
**A.** The value was “transient, severe clinical signs”.

**Q.** What about the “cardiac toxicity or QT prolongation” value ([4]; nonhuman primates) of the same substance?
**A.** Its value is “no cardiac toxicity or QT prolongation”.

**Q.** And the “clinical signs at 80 mg/kg” value ([4]; single IV 80 mg/kg, during dosing)?
**A.** Its value is “transient drooping eye lids and prostration”.

**Q.** And the “cardiovascular effects and ECG parameters” value [4, 9]?
**A.** Its value is “no cardiovascular effects or changes in electrocardiogram (ECG) parameters”.

**Q.** What about the respiratory effects [4, 9] of the same substance?
**A.** The respiratory effects was “No respiratory effects were observed”.

**Q.** And the “proliferation of mouse normal blood cells” value (mouse normal blood cells)?
**A.** The value was “did not promote the proliferation”.

**Q.** What about the “proliferation of primary human leukemia cells” value [5] of the same substance?
**A.** Its value is “did not promote the proliferation”.

**Q.** What about the platelet counts [6, 10] of the same substance?
**A.** The platelet counts was “increased”.

**Q.** And the “white blood cell counts” value [6, 10]?
**A.** The value was “significantly increased”.

**Q.** What about the body weights ([6]; Day 10, 200 mg/kg IP, relative to CpG stimulated, saline-treated group) of the same substance?
**A.** The body weights was “increased”.

**Q.** What about the IFNγ levels [6, 11] of the same substance?
**A.** The IFNγ levels was “not significantly altered”.

**Q.** And the IL-10 levels [6, 11]?
**A.** The IL-10 levels was “not significantly altered”.

**Q.** What about the IL-12 levels ([6]; Day 10, serum, 200 mg/kg IP, relative to CpG stimulated, saline-treated group) of the same substance?
**A.** Its IL-12 levels is “decreased”.

**Q.** And the “changes in saline stimulated, RIVPA treated group” value ([6]; relative to saline stimulated, saline treated control)?
**A.** Its value is “no significant changes”.

**Q.** What about the IFNγ levels ([6]; repeat study) of the same substance?
**A.** The IFNγ levels was “no significant changes”.

**Q.** And the platelet count [6, 12]?
**A.** Its platelet count is “statistically significant increase”.

**Q.** And the “white blood cell count” value [6, 12]?
**A.** Its value is “statistically significant increase”.

**Q.** What about the “HED of dose at which acute toxicity occurs rarely” value ([7]; mouse 60 mg/kg) of the same substance?
**A.** The value was about 5 mg/kg.

**Q.** And the “HED of dose at which acute toxicity occurs commonly” value ([7]; mouse 90 mg/kg)?
**A.** Its value is about 7 mg/kg.

**Q.** And the “HED of dose at which acute toxicity occurs occasionally” value ([8]; NHP 160 mg/kg)?
**A.** The value was about 50 mg/kg.

**Q.** And the “HED of dose at which acute toxicity occurs consistently” value ([8]; NHP 240 mg/kg)?
**A.** Its value is about 78 mg/kg.
